Reference: BindingDB's records for doi:10.1021/jm701275z (University of Athens, 2008)

molecular target: Angiotensin-converting enzyme (Homo sapiens, UniProt P12821); assay: Enzyme Inhibition Assay; details: pH 6.8; 25 °C
Experimental: Continuous assays were performed by recording the fluorescence increase at 405 nm (excitation@ 320 nm) induced by the cleavage of fluorogenic substrate, using 96-well nonbinding surface plates. Fluorescence signals were monitored using a Fluoroscan Ascent photon counter spectrophotometer (Thermo-Labsystems, Courtaboeuf, France) equipped with a temperature control device and a plate shaker. The substrate and enzyme concentrations for the experiments were chosen so as to remain well below 10% of substrate utilization and to observe initial rates. For each inhibitor, percentage inhibition was determined in triplicate experiments at five inhibitor concentrations, chosen to observe a 20-80% range of inhibition. Ki values were determined using the method proposed by Horovitz and Leviski, as described in Proc. Natl. Acad. Sci. U.S.A. 1987, 84, 6654.

Sequence of Angiotensin-converting enzyme (P12821 whole entry): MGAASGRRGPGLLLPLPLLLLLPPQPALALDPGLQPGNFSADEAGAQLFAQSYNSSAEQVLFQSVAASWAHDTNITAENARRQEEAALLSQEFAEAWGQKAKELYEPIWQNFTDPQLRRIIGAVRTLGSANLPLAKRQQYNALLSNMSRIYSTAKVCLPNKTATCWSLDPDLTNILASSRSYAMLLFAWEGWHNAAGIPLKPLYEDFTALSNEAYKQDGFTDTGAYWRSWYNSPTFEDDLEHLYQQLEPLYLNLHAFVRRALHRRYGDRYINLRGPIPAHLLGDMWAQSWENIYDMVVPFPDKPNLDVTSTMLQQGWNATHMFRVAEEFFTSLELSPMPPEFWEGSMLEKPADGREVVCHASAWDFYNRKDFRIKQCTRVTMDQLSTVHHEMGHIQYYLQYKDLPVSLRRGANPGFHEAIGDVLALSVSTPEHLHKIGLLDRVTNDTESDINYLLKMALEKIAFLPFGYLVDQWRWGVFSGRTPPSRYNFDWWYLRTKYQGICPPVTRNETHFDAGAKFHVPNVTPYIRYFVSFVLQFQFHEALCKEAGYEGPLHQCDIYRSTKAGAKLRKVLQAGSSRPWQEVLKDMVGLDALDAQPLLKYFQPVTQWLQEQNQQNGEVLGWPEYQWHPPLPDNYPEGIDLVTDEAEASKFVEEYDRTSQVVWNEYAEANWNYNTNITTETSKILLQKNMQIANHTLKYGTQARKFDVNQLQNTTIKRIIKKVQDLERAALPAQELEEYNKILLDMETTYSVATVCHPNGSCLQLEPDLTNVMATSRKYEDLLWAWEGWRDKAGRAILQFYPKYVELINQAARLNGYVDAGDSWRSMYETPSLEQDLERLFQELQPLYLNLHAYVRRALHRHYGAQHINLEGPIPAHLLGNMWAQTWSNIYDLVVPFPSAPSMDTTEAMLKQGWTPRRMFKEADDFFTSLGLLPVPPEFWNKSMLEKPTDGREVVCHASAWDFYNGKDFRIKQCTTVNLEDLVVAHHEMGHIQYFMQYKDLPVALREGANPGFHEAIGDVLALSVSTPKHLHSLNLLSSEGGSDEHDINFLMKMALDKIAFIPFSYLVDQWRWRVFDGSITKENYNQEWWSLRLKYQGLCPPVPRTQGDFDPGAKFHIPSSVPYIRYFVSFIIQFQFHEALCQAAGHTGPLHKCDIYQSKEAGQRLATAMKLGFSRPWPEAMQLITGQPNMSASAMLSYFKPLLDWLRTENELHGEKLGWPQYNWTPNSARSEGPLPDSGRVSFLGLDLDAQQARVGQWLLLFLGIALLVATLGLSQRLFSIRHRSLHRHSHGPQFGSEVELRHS

Ki, > 10 µM:
CC(=O)NC(Cc1c[nH]cn1)C(=O)N1CCCC1P(=O)(O)CC(Cc1cc(-c2ccccc2)no1)C(=O)O (centres undefined) [3-({1-[2-acetamido-3-(1H-imidazol-4-yl)propanoyl]pyrrolidin-2-yl}(hydroxy)phosphoryl)-2-[(3-phenyl-1,2-oxazol-5-yl)methyl]propanoic acid], CC(=O)NC(CC(C)C)C(=O)N1CCCC1P(=O)(O)CC(Cc1ccccc1)C(=O)O (centres undefined) [The second fraction of the HPLC chromatogram.], CC(=O)NC(Cc1c[nH]cn1)C(=O)N1CCCC1P(=O)(O)CC(Cc1ccccc1)C(=O)O (centres undefined) [The second fraction of the HPLC chromatogram.], CC(=O)NC(CC(C)C)C(=O)N1CCCC1P(=O)(O)CC(Cc1cc(-c2ccccc2)no1)C(=O)O (centres undefined) [3-{[1-(2-acetamido-4-methylpentanoyl)pyrrolidin-2-yl](hydroxy)phosphoryl}-2-[(3-phenyl-1,2-oxazol-5-yl)methyl]propanoic acid]
